From article PMC7281707, “Antiproliferative and Carbonic Anhydrase II Inhibitory Potential of Chemical Constituents from Lycium shawii and Aloe vera: Evidence from In Silico Target Fishing and In Vitro Testing” (Pharmaceuticals, 2020)
Read-outs that look alike come from different tables or passages of the source. One block for each compound: values may come before it.

Legend:
[1] = system: MDA-MB-231 breast cancer cells; experiment: MTT cytotoxic activity assay on MDA-MB-231 breast cancer cells; assay type: cell-based, human; conditions: for IC50: MDA-MB-231, MTT, 24 h incubation, read-out: IC50 (Mean ± SEM)
Description: (§1) Cytotoxic activity was performed according to the previously described methods. Breast cancer cell lines MDA-MB-231 were maintained in Dulbecco’s modified eagle medium (DMEM, Invitrogen, Carlsbad, CA, USA). The media was supplemented with 10% fetal bovine serum (FBS) and 1% antimycotic antibiotic (Invitrogen, Carlsbad, CA, USA). Cells were cultured in a 5% CO2-humidified atmosphere at 37 °C. Stock solution (5 mg/mL) of 3-(4,5-dimethylthiazol-2-yl)-2,5-diphenyltetrazolium bromide (MTT, Merck, Darmstadt, Hesse, Germany) was prepared in phosphate-buffered saline (PBS).
(§2) Cells were seeded at a density of 1 × 10^4 cells per well in 96-well microtiter culture plates. After overnight incubation, normal growth medium was removed and replaced with either fresh medium (untreated control) or different concentrations of respective compounds in growth medium diluted from a 2 mM stock. After 24 h of incubation, MTT solution was added to each well (0.1 mg/mL in DMEM) and incubated further for 4 h at 37 °C. Upon termination, the supernatant was aspirated and the MTT formazan, formed by metabolically viable cells, was dissolved in a solubilization solution containing DMSO (100 սL) by mixing for 5 min on a gyratory shaker. The absorbance was measured at 540 nm (reference wavelength 690 nm) on an Ultra Multifunctional Microplate Reader (Bio-Rad, Hercules, California, USA). Absorbance of control (without treatment) was considered as 100% cell survival. Each treatment had three replicate wells [56]. The IC50 values of the active compounds were calculated using nonlinear regression through GraphPad Prism 4 software (La Jolla, CA, USA).

bovine erythrocyte CA-II = target: T1, bovine erythrocyte CA-II (Bos taurus, UniProt P00921); experiment: Carbonic anhydrase II inhibition (4-nitrophenyl acetate); assay type: biochemical; parameters: % Inhibition: concentration or dose not given beside the values; conditions: CA-II in vitro; for IC50: read-out: IC50 (µM) ± (SEM)
T1 construct: purified bovine erythrocyte CA-II; purchased Sigma-Aldrich; host or cells: bovine erythrocytes (natural source)
Description: The total reaction volume of 200 µL included 20 µL of test compounds prepared in DMSO, followed by the addition of 140 µL of the HEPES–tris buffer, 20 µL of purified bovine erythrocyte CA-II (0.1 mg/mL) prepared in buffer, and 20 µL of a solution of 4-nitrophenyl acetate. A 20 µL amount of test compound was incubated with the enzyme (EC 4.2.1.1, Sigma-Aldrich, St. Louis, MO, USA) for 15 min in a 96-well flat-bottom plate. The rate of product formation was monitored with the addition of 20 µL of 4-NPA as substrate, prepared in methanol at the final concentration of 0.7 mM, at 25 °C for 30 min with regular intervals of 1 min, by using microplate readers (Bio-Rad, Molecular Devices, CA, USA). HEPES-tris was used as a buffer for the reaction at the final concentration of 20 mM at pH 7.4. The percent inhibition was calculated by using the following formula:% Inhibition = 100 − (OD test well/OD control) × 100

[2] = MTT cytotoxic activity assay on MDA-MB-231 breast cancer cells; assay type: cell-based, human; conditions: human, MDA-MB-231 breast cancer cells; for viability at 24 h, 75 µM: MDA-MB-231, 75 µM; for viability at 24 h, 75 µM / viability at 24 h, 25 µM: read-out: cell viability
Description: as §1, §2

[3] = DPPH radical scavenging (antioxidant) assay; conditions: for IC50: isolated compounds
Description: Free radical scavenging activity of the test fractions/compounds was determined by measuring the change in absorbance of DPPH (l, l-Diphenyl-2-picrylhydrazyl radical, Sigma-Aldrich, St Louis, MO, USA) at 515 nm by the microplate reader (SpectraMax M2, Molecular Devices, CA, USA) as previously described. […] The IC50 values of the tested compounds were calculated using nonlinear regression through GraphPad Prism 4 software (La Jolla, CA, USA).

[4] = reported earlier by the group; cited from earlier work

T1 sequence (P00921 whole entry): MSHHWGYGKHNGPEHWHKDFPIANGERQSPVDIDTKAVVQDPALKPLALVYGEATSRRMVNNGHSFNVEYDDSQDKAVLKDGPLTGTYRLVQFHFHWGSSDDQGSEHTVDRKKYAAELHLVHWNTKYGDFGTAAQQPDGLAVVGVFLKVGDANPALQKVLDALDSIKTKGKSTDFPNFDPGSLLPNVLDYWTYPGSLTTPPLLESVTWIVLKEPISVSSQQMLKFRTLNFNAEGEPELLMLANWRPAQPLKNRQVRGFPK

SMILES: O=C1c2cccc(O)c2C(=O)c2c(O)cc(CO)cc21 [Compound 5, aloe emodin]
IC50 ([1]; Homo sapiens, MDA-MB-231, 24 h): ~31 µM | loss of cell viability ([1]; MDA-MB-231, 25 µM): 50.53% | IC50 [1]: 31.4 ± 2.44 µM | % Inhibition (bovine erythrocyte CA-II): 86.3% | IC50 (bovine erythrocyte CA-II): 14.4 ± 1.14 µM

SMILES: O=C1c2c(O)cccc2[C@](O)([C@@H]2O[C@H](CO)[C@@H](O)[C@H](O)[C@H]2O)c2cc(CO)cc(O)c21 [Compound 10, 10-hydroxy aloin A]
IC50 ([1]; Homo sapiens, MDA-MB-231, 24 h): 143 ± 12.7 µM | cytotoxic effect / cell growth inhibition ([1]; MDA-MB-231, 25 µM): growth-promoting effect | viability at 24 h, 75 µM [2]: 77%

SMILES: C=C1C(=O)OC2C1CCC(O)C1(C)CCC(C)(O)C21 (stereo not shown) [Compound 3, lyciumate]
IC50 ([1]; Homo sapiens, MDA-MB-231, 24 h): 49.4 ± 3.73 µM | viability at 24 h, 25 µM ([2]; MDA-MB-231, 25 µM): 81 to 89%

% Inhibition (bovine erythrocyte CA-II): 33% | IC50 (µM) ± (SEM) (bovine erythrocyte CA-II): inactive
SMILES: C=C1CC[C@H]2C(=C)CC[C@H]3C(=C)C(=O)O[C@@H]3[C@@H]12 [Compound 1, dehydrocostus lactone]
IC50 ([1]; Homo sapiens, MDA-MB-231, 24 h): 35.4 ± 2.56 µM | inhibition at 100 µM ([1]; Homo sapiens, MDA-MB-231, 100 µM, read-out: inhibition of cell proliferation): 92.1% | viability at 24 h, 25 µM ([2]; MDA-MB-231, 25 µM): 76% | antioxidant activity (in words) [3]: moderate activity

IC50 [3]: 55 ± 2 µM
SMILES: Oc1cc(O)c2c(c1)O[C@H](c1ccc(O)c(O)c1)[C@@H](O)C2 [Compound 4, catechin]
IC50 ([1]; Homo sapiens, MDA-MB-231, 24 h): 101 ± 7.09 µM | % Inhibition (1 mM) [3]: 78%

SMILES: O=C(/C=C/c1ccccc1)O[C@@H]1O[C@H](CO)[C@@H](O)[C@H](O)[C@H]1OC(=O)c1cc(O)c(O)c(O)c1 [Compound 9, lyciumaside]
antioxidant IC50 [4]: 30 µg/mL | IC50 ([1]; Homo sapiens, MDA-MB-231, 24 h): 76 µM | cytotoxic effect / cell growth inhibition ([1]; MDA-MB-231, 25 µM): did not inhibit cell growth significantly | loss of cell viability ([1]; MDA-MB-231, 100 µM): approximately 70% | IC50 [1]: 76.9 ± 7.04 µM | cell growth inhibition ([1]; MDA-MB-231, concentrations above 50 µM): above 50% | viability at 24 h, 25 µM ([2]; MDA-MB-231, 25 µM): 81 to 89%

% Inhibition (bovine erythrocyte CA-II): 84.7% | IC50 (bovine erythrocyte CA-II): 24.4 µM
SMILES: C=C1C(=O)O[C@@H]2/C=C(\C)CC/C=C(\C)CC[C@@H]12 [Compound 2, costunolide]
IC50 ([1]; Homo sapiens, MDA-MB-231, 24 h): 42.1 ± 2.98 µM | viability at 24 h, 25 µM ([2]; MDA-MB-231, 25 µM): 81 to 89%

Antioxidant IC50 ± SEM ([3]; fractions and standard): 53 ± 1.32 µg/mL
SMILES: O=C1O[C@H]([C@@H](O)CO)C(O)=C1O [Ascorbic acid, reference compound]
Antioxidant % Inhibition ([3]; concentration = 1 mg/mL): 90%

SMILES: C[C@@H]1O[C@@H](OCc2cc(O)c3c(c2)[C@H]([C@@H]2O[C@H](CO)[C@@H](O)[C@H](O)[C@H]2O)c2cccc(O)c2C3=O)[C@H](O)[C@H](O)[C@H]1O [Compound 11, aloinoside B]
IC50 ([1]; Homo sapiens, MDA-MB-231, 24 h): 140 ± 13.1 µM | cytotoxic effect / cell growth inhibition ([1]; MDA-MB-231, 25 µM): no cell growth inhibition | viability at 24 h, 75 µM [2]: 64%

SMILES: COc1cccc2c1C(=O)c1c(O)c3c(c(O)c1C2=O)C[C@@](O)(C(=O)CO)C[C@@H]3O[C@H]1C[C@H](N)[C@H](O)[C@H](C)O1 [Doxorubicin, reference compound]
IC50 ([1]; Homo sapiens, MDA-MB-231, 24 h): 3.31 ± 0.19 µM

IC50 [3]: 762 ± 2 µM
SMILES: CC(=O)Cc1cc(=O)c2c(C)cc(O)c(C3OC(COC(=O)C=Cc4ccc(O)cc4)C(O)C(O)C3O)c2o1 (stereo not shown) [Compound 13, 6′-O-coumaroylaloesin]
% Inhibition (1 mM) [3]: 73%

SMILES: CC1OC(OCc2cc(O)c3c(c2)C(=O)c2cccc(O)c2C3=O)C(O)C(O)C1O (stereo not shown) [Compound 8, aloe emodine 11-O-rhamnoside]
IC50 ([1]; Homo sapiens, MDA-MB-231, 24 h): 72 µM | IC50 [1]: 72.2 ± 6.29 µM | viability at 24 h, 25 µM ([2]; MDA-MB-231, 25 µM): 81 to 89%

IC50 [3]: 241 ± 1.5 µM
SMILES: C[C@@H]1C[C@@H](O)Cc2cc(O)cc(O)c21 [Compound 14, feroxidin]
% Inhibition (1 mM) [3]: 80%

IC50 [3]: 645 ± 1.5 µM
SMILES: Cc1cc(O)c2c(c1)C(=O)c1cc(O)cc(O)c1C2=O [Compound 6, emodin]
IC50 ([1]; Homo sapiens, MDA-MB-231, 24 h): 73 µM | IC50 [1]: 73.5 ± 5.89 µM | % Inhibition (1 mM) [3]: 71%

% Inhibition (bovine erythrocyte CA-II): 91.2% | IC50 (bovine erythrocyte CA-II): 23.3 ± 1.63 µM
SMILES: COc1cc(=O)oc2cc(O)cc(C)c12 [Compound 12, 7-demethylsiderin]
IC50 ([1]; Homo sapiens, MDA-MB-231, 24 h): 60.1 ± 4.82 µM | inhibition at 24 h, 25 µM ([2]; MDA-MB-231, 25 µM, read-out: cytotoxic effect / cell growth inhibition): ~14% | viability at 24 h, 75 µM [2]: 44%
